Consider 2 compounds from article PMC8632988, “Inhibition of SYK and cSrc kinases can protect bone and cartilage in preclinical models of osteoarthritis and rheumatoid arthritis” (Scientific Reports, 2021).

One series deals with mongrel rats, AIA model. Kind of series: Adjuvant-induced arthritis in rats. The class given is in vivo. As to the method: Rat adjuvant-induced arthritis (AIA) model was performed at Pharmenterprises, Russia as described previously^3 and approved by Ethics Committee of Pharmenterprises. Male 10 week old mongrel rats were divided into eleven groups: negative control (#1), positive control (#2) and nine treatment groups (#3–11), ten […] in each group. Group #1 was left intact, while subplantar injection of 0.1 mL of Complete Freund’s adjuvant (CFA, Sigma) was made on day 0 at right paws of rats in groups […]. […] Disease progression was monitored by measuring volumes of the right (involved) and left (non-involved) paws on days 0, 14, 18, 21, 25, and 28.

The next series concerns 341 kinases. Description: Kinase selectivity profile, whole panel. As to conditions: 500 nM. The class given is biochemical, human. On the procedure: (§1) The activity of MT-SYK-03 against cSrc kinase and selectivity profile towards other 341 kinases was determined at Reaction Biology Corporation (Malvern, PA, USA) using the standard kinase assay protocol. […]; unbound phosphate was removed by extensive washing of filters in phosphoric acid. Kinase activity data was expressed as the percent remaining kinase activity in test samples compared to vehicle (dimethyl sulfoxide) reactions based on the radioactivity of reaction products (see Table S2). Experiment was replicated twice.

The next series concerns the target T1, PAK4 (Homo sapiens, UniProt O96013).
T1 construct: purchased Reaction Biology Corporation
Kind of series: Kinase selectivity profile assay. The class given is biochemical. The note with it: 500 nM; relative to DMSO; read-out: Residual enzymatic activity. In short, it runs like this:
(§2)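 Radiometric kinase assay run by a standard protocol. Unbound phosphate was removed by washing filters in phosphoric acid, and product radioactivity gave percent remaining kinase activity versus DMSO vehicle reactions. Run in duplicate.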

The target in the next series is T2, CDK6/cyclin D3 (Homo sapiens, UniProt Q00534).
T2 construct: purchased Reaction Biology Corporation
T2 sequence (Q00534 whole entry): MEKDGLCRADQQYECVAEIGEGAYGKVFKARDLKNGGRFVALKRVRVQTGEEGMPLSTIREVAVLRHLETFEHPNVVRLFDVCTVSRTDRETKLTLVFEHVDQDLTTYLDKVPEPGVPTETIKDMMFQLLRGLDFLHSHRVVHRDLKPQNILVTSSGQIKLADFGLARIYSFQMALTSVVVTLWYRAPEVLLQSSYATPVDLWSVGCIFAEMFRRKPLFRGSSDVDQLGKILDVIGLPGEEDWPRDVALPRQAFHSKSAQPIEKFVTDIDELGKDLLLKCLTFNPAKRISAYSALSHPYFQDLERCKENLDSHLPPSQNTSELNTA
T2 sequence (P30281 whole entry partner): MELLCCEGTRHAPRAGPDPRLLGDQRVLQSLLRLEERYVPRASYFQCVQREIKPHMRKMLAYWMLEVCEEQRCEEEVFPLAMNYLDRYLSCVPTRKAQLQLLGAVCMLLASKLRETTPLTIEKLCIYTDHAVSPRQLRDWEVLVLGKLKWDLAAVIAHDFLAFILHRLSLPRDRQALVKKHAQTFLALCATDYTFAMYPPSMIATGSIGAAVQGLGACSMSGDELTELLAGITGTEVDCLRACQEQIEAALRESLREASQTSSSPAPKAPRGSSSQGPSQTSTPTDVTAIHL
Kind of series: Kinase selectivity profile assay. The class given is biochemical. As to conditions: 500 nM; relative to DMSO; read-out: Residual enzymatic activity. In short, it runs like this: as §2

For the next series, the target named is T3, TXK (Homo sapiens, UniProt P42681).
T3 construct: purchased Reaction Biology Corporation (Malvern, PA, USA)
T3 sequence (P42681 1-527): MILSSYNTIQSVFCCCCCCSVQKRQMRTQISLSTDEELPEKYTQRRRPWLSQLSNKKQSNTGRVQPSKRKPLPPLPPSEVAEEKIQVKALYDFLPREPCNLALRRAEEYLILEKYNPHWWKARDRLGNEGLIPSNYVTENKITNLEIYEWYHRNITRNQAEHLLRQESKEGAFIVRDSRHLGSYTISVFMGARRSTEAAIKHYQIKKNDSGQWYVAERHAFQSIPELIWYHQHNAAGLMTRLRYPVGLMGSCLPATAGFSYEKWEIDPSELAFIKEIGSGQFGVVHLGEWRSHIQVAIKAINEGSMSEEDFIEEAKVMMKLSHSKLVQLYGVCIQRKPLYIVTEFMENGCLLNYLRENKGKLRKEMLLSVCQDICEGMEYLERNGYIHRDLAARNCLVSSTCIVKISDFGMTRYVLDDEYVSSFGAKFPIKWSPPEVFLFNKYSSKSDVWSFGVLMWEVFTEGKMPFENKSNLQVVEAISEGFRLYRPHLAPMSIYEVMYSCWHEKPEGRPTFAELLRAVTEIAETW
Description: Kinase selectivity profile assay. The class given is biochemical. The note with it: 500 nM; relative to DMSO; read-out: Residual enzymatic activity. In outline: as §2

For the next series, the target named is T4, FLT4/VEGFR3 (Homo sapiens, UniProt P35916).
T4 construct: purchased Reaction Biology Corporation (assay service)
T4 sequence (P35916 25-1363): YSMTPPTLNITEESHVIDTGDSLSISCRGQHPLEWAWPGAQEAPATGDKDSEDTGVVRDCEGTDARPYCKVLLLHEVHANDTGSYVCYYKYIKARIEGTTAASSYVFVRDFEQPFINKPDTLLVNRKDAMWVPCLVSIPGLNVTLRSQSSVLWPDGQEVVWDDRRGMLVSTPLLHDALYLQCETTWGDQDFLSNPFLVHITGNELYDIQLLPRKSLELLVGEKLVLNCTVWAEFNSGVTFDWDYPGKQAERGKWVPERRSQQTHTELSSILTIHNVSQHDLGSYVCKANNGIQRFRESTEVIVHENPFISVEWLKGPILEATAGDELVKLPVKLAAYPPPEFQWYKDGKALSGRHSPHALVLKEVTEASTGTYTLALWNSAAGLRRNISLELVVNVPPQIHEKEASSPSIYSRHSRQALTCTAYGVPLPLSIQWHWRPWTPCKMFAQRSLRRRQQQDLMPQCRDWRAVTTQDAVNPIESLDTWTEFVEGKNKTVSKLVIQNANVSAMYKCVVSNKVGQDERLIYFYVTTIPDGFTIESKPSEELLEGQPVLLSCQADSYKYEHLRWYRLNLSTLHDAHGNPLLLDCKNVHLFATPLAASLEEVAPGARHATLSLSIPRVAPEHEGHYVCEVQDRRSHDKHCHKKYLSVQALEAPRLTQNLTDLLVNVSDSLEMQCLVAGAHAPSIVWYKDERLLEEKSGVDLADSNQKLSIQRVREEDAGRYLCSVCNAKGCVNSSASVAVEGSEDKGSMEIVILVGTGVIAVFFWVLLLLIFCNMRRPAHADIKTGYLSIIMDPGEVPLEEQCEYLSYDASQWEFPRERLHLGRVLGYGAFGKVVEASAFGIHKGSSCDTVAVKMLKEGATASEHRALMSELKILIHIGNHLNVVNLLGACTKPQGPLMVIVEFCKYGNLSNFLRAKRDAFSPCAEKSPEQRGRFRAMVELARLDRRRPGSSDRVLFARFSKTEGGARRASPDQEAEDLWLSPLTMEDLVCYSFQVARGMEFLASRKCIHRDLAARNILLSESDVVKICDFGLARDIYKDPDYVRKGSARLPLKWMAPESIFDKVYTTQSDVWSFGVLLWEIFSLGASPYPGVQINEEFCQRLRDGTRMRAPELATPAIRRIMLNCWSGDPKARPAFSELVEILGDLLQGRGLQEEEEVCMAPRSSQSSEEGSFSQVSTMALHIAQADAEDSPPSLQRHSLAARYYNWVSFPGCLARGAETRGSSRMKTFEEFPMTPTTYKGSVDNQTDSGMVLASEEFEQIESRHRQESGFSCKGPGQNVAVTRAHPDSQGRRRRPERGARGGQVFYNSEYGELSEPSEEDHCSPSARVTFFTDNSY
Kind of series: Kinase selectivity profile assay. The class given is biochemical. The note with it: 500 nM; relative to DMSO; read-out: Residual enzymatic activity. In short, it runs like this: as §2

The next series deals with T5, CAMK2d (Homo sapiens, UniProt Q13557).
T5 construct: purchased Reaction Biology Corporation
T5 sequence (Q13557 whole entry): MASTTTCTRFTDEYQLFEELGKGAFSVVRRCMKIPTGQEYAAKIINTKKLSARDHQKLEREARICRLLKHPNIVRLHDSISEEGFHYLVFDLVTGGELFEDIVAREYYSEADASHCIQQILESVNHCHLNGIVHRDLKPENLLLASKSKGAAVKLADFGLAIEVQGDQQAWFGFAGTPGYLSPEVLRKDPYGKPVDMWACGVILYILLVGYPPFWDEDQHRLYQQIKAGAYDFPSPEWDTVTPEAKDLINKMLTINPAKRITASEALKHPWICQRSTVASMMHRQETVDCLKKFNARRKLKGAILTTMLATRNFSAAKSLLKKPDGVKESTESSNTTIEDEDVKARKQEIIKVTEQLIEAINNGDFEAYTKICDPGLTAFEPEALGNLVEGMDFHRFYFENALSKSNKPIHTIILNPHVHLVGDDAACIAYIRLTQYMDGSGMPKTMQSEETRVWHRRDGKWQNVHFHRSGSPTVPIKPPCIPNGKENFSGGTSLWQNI
Description: Kinase selectivity profile assay. The class given is biochemical. The note with it: 500 nM; relative to DMSO; read-out: Residual enzymatic activity. In short, it runs like this: as §2

A further series deals with T6, DYRK3 (Homo sapiens, UniProt O43781).
T6 construct: purchased Reaction Biology Corporation
T6 sequence (O43781 whole entry): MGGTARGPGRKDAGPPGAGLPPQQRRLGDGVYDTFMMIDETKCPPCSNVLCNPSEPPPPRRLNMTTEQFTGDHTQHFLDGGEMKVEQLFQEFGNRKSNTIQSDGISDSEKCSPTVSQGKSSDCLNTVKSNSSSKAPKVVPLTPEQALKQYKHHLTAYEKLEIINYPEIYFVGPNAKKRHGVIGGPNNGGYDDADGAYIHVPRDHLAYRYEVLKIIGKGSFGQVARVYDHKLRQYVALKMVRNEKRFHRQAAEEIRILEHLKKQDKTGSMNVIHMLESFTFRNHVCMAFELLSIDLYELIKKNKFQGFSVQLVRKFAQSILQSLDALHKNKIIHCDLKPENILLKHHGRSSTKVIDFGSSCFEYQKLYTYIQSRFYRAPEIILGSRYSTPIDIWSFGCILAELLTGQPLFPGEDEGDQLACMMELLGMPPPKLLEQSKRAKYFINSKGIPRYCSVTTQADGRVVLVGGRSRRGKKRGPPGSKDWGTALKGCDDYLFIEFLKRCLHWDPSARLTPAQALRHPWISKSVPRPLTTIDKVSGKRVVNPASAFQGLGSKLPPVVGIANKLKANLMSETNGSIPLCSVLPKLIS
Description: Kinase selectivity profile assay. The class given is biochemical. The note with it: 500 nM; relative to DMSO; read-out: Residual enzymatic activity. In short, it runs like this: as §2

In another series the target is T7, DYRK4 (Homo sapiens, UniProt Q9NR20).
T7 construct: purchased Reaction Biology Corporation
T7 sequence (Q9NR20 whole entry): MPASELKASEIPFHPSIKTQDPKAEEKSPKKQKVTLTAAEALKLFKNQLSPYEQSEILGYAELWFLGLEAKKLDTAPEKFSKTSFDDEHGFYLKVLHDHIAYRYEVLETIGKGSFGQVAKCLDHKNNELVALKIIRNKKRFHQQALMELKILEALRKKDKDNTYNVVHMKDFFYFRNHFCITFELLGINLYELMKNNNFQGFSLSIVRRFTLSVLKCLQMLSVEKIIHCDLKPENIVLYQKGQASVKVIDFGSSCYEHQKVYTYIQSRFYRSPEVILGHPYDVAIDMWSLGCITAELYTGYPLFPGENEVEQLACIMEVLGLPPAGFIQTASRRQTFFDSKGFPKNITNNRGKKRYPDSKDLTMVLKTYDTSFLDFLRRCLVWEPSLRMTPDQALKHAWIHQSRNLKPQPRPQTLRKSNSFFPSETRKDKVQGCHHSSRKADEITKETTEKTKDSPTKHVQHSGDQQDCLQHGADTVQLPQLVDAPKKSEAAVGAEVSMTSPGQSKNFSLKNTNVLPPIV
Kind of series: Kinase selectivity profile assay. The class given is biochemical. The note with it: 500 nM; relative to DMSO; read-out: Residual enzymatic activity. On the procedure: The activity of MT-SYK-03 against cSrc kinase and selectivity profile towards other 341 kinases was determined at Reaction Biology Corporation (Malvern, PA, USA) using the standard kinase assay protocol. […] Kinase activity data was expressed as the percent remaining kinase activity in test samples compared to vehicle (dimethyl sulfoxide) reactions based on the radioactivity of reaction products (see Table S2). Experiment was replicated twice.

Another series deals with T8, c-Src (Homo sapiens, UniProt P12931).
T8 construct: purchased Reaction Biology Corporation (assay service)
T8 sequence (P12931 whole entry): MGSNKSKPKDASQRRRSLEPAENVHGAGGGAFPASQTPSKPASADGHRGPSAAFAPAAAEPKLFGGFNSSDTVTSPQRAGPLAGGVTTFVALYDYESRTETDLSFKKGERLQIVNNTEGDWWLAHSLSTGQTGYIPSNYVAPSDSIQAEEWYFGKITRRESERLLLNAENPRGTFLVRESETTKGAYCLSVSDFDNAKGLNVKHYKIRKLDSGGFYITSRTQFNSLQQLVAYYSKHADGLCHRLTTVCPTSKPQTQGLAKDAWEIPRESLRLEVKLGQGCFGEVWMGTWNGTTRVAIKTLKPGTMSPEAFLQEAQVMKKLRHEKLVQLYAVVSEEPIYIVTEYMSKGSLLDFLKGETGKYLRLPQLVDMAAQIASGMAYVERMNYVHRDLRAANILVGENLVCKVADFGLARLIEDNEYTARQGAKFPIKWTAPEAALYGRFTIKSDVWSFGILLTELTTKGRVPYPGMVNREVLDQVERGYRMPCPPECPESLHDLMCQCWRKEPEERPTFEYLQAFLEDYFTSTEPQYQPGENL
Kind of series: cSrc inhibition and kinase selectivity profile assay. The class given is biochemical. As to conditions: 500 nM; relative to DMSO; read-out: Residual enzymatic activity. On the procedure:
as §1

T1 sequence (O96013 whole entry): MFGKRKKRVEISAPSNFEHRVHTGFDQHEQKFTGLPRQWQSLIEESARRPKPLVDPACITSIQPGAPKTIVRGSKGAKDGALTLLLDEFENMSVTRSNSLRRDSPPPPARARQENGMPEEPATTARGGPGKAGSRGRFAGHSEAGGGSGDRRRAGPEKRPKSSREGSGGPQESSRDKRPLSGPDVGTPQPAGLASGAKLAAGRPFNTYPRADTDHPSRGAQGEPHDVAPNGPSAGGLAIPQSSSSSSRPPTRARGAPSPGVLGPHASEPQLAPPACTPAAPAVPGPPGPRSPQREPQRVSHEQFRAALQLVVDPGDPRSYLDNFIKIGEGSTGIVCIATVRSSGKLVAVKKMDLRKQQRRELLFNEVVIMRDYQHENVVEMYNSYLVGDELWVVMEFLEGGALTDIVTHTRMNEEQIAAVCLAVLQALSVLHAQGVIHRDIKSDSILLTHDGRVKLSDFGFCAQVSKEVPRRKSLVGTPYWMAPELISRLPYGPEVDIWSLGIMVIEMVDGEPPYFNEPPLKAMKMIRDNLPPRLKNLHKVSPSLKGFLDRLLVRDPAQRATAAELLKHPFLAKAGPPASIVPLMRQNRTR

For `CN(Cc1cnc2nc(N)nc(N)c2n1)c1ccc(C(=O)N[C@@H](CCC(=O)O)C(=O)O)cc1` [MTX, methotrexate, reference compound], the Animal death in the series on mongrel rats, AIA model (Methotrexate 0.2 mg/kg QD intragastric, 14 days) came out at 0%; in the series on mongrel rats, AIA model (Methotrexate 0.2 mg/kg QD intragastric, 18 days), 0%; in the series on mongrel rats, AIA model (Methotrexate 0.2 mg/kg QD intragastric, 21 days), 0%; with mongrel rats, AIA model (Methotrexate 0.2 mg/kg QD intragastric, 25 days), 10%; with mongrel rats, AIA model (Methotrexate 0.2 mg/kg QD intragastric, 28 days) it was 20%; in the series with mongrel rats, AIA model (Methotrexate 0.5 mg/kg QD intragastric, 14 days), 0%. Further, the Animal death was determined as 0% in the series on mongrel rats, AIA model (Methotrexate 0.5 mg/kg QD intragastric, 18 days); 0% in the series with mongrel rats, AIA model (Methotrexate 0.5 mg/kg QD intragastric, 21 days); 20% with mongrel rats, AIA model (Methotrexate 0.5 mg/kg QD intragastric, 25 days); 70% with mongrel rats, AIA model (Methotrexate 0.5 mg/kg QD intragastric, 28 days). The Rats died with mongrel rats, AIA model (rat AIA, MTX 0.2 mg/kg) is recorded as 20%; in the series on mongrel rats, AIA model (rat AIA, MTX 0.5 mg/kg), 70%. Also, the “Volume of treated (CFA-injected) paws” value in the series with mongrel rats, AIA model (rat AIA, day 28) is “statistically significant reductions of paw volume”. Also, the “Volume of non-involved paws” value in the series with mongrel rats, AIA model (rat AIA, high-dose MTX, day 28) is “decreased the volume of non-involved paws”; with mongrel rats, AIA model (rat AIA, low-dose MTX, day 28), “no statistically significant effect”.
For `COc1cc(Nc2ncc(F)c(Nc3ccc4c(n3)NC(=O)C(C)(C)O4)n2)cc(OC)c1OC` [R406, reference compound], the “Number of kinases inhibited by more than 50%” value in the series with 341 kinases is recorded as 104 kinases. Also, the “Number of kinases inhibited by more than 80%” value in the series on 341 kinases was found to be 50 kinases. In addition, the “Number of kinases inhibited by more than 90%” value with 341 kinases came to 26 kinases. Moreover, the remaining activity at 0.5 µM on PAK4 came to 53.9%; on CDK6/cyclin D3, 97.4%; at TXK, 16.3%; at FLT4/VEGFR3 it was 4.9%; on CAMK2d it was 98.9%; on DYRK3 it was 90.6%. Moreover, the remaining activity at 0.5 µM is 77.1% on DYRK4 and 6.8% at c-Src.
